Assay results as given in ChEMBL document CHEMBL3632555, “Design, synthesis and biological evaluation of novel 1,2,4-triazolo [3,4-b][1,3,4] thiadiazines bearing furan and thiophene nucleus” (Eur J Med Chem, 2015).

Key:
[1] = test system: A549; test: Cytotoxicity against human A549 cells after 48 hrs by MTT assay; type: functional, cell-based; settings: A549, 48 h
[2] = test system: PC-3; test: Cytotoxicity against human PC3 cells after 48 hrs by MTT assay; type: functional, cell-based; settings: PC-3, 48 h
[3] = test system: HepG2; test: Cytotoxicity against human HepG2 cells after 48 hrs by MTT assay; type: functional, cell-based; settings: HepG2, 48 h
[4] = test system: MCF7; test: Cytotoxicity against human MCF7 cells after 48 hrs by MTT assay; type: functional, cell-based; settings: MCF7, 48 h
[5] = test system: PC-3; test: Potency index, ratio of IC50 for fluorouracil to IC50 for test compound for human PC3 cells; type: functional
[6] = test system: HepG2; test: Potency index, ratio of IC50 for fluorouracil to IC50 for test compound for human HepG2 cells; type: functional
[7] = test system: PC-3; test: Cell cycle arrest in human PC3 cells assessed as accumulation at G2/M phase after 48 hrs by flow cytometry; type: functional, cell-based
[8] = test system: PC-3; test: Cell cycle arrest in human PC3 cells assessed as accumulation at G2/M phase at 8 uM after 48 hrs by flow cytometry (Rvb=16.72%); type: functional
[9] = test system: PC-3; test: Cell cycle arrest in human PC3 cells assessed as accumulation at G0/G1 phase at 8 uM after 48 hrs by flow cytometry (Rvb=60.55%); type: functional
[10] = test system: A549; test: Potency index, ratio of IC50 for fluorouracil to IC50 for test compound for human A549 cells; type: functional
[11] = test system: PC-3; test: Cell cycle arrest in human PC3 cells assessed as accumulation at G2/M phase at 2 uM after 48 hrs by flow cytometry (Rvb=16.72%); type: functional
[12] = test system: PC-3; test: Cell cycle arrest in human PC3 cells assessed as accumulation at G0/G1 phase at 2 uM after 48 hrs by flow cytometry (Rvb=60.55%); type: functional
[13] = test system: PC-3; test: Cell cycle arrest in human PC3 cells assessed as accumulation at S phase at 4 uM after 48 hrs by flow cytometry (Rvb=21.10%); type: functional
[14] = test system: PC-3; test: Cell cycle arrest in human PC3 cells assessed as accumulation at Sub-G1 phase at 2 uM after 48 hrs by flow cytometry (Rvb=0.37%); type: functional
[15] = test system: PC-3; test: Cell cycle arrest in human PC3 cells assessed as accumulation at S phase at 2 uM after 48 hrs by flow cytometry (Rvb=21.10%); type: functional
[16] = test system: PC-3; test: Cell cycle arrest in human PC3 cells assessed as accumulation at Sub-G1 phase at 8 uM after 48 hrs by flow cytometry (Rvb=0.37%); type: functional
[17] = test system: PC-3; test: Cell cycle arrest in human PC3 cells assessed as accumulation at G2/M phase at 4 uM after 48 hrs by flow cytometry (Rvb=16.72%); type: functional
[18] = test system: PC-3; test: Cell cycle arrest in human PC3 cells assessed as accumulation at S phase at 8 uM after 48 hrs by flow cytometry (Rvb=21.10%); type: functional
[19] = test system: PC-3; test: Cell cycle arrest in human PC3 cells assessed as accumulation at Sub-G1 phase at 4 uM after 48 hrs by flow cytometry (Rvb=0.37%); type: functional
[20] = test system: PC-3; test: Cell cycle arrest in human PC3 cells assessed as accumulation at G0/G1 phase at 4 uM after 48 hrs by flow cytometry (Rvb=60.55%); type: functional

SMILES | IC50 [1] [µM] | IC50 [2] [µM] | IC50 [3] [µM] | IC50 [4] [µM] | other results
COc1cc(-c2nnc3n2NC(c2cccs2)C(C(=O)c2ccc(F)cc2)S3)cc(OC)c1OC (centres undefined) | 45 | 27.4 | 54.2 | 43.6 | 
COc1cc(-c2nnc3n2NC(c2ccco2)C(C(=O)c2ccc(F)cc2)S3)cc(OC)c1OC (centres undefined) | 53.7 | 27.7 | > 100 | > 100 | Ratio IC50 [5]: 0.62
COc1cc(-c2nnc3n2NC(c2ccco2)C(C(=O)c2ccc(Br)cc2)S3)cc(OC)c1OC (centres undefined) | 42.1 | 36.4 | > 100 | > 100 | Ratio IC50 [5]: 0.62
COc1cc(-c2nnc3n2NC(c2ccco2)C(C(=O)c2cccc(Br)c2)S3)cc(OC)c1OC (centres undefined) | 36.9 | 63.9 | > 100 | 91.8 | 
COc1cccc(C(=O)C2Sc3nnc(-c4cc(OC)c(OC)c(OC)c4)n3NC2c2ccco2)c1 (centres undefined) | > 100 | 84.6 | > 100 | > 100 | 
O=c1[nH]cc(F)c(=O)[nH]1 [FLUOROURACIL] | 22.3 | 22.6 |  | 19.4 | 
COc1cc(-c2nnc3n2NC(c2ccco2)C(C(=O)c2ccccc2C)S3)cc(OC)c1OC (centres undefined) | 80 | 88.4 | 63 | 69.9 | 
COc1cc(-c2nnc3n2NC(c2ccco2)C(C(=O)c2cccc4ccccc24)S3)cc(OC)c1OC (centres undefined) | > 100 | > 100 | 33.9 | > 100 | 
COc1cc(-c2nnc3n2NC(c2ccco2)C(C(=O)c2ccc(Cl)cc2)S3)cc(OC)c1OC (centres undefined) | 51.4 | 67.8 | 78.6 | > 100 | 
COc1cc(C(=O)C2Sc3nnc(-c4cc(OC)c(OC)c(OC)c4)n3NC2c2ccco2)cc(OC)c1OC (centres undefined) | 48.3 | 52.2 | > 100 | > 100 | 
COc1cc(-c2nnc3n2NC(c2ccco2)C(C(=O)c2ccccc2F)S3)cc(OC)c1OC (centres undefined) | 78.7 | > 100 | > 100 | 94.8 | 
COc1cc(-c2nnc3n2NC(c2ccco2)C(C(=O)C2CC2)S3)cc(OC)c1OC (centres undefined) | > 100 | 95.2 | > 100 | > 100 | 
COc1cc(-c2nnc3n2NC(c2ccco2)C(C(=O)c2ccc(C(F)(F)F)cc2)S3)cc(OC)c1OC (centres undefined) | 37.1 | 77.5 | > 100 | 33.6 | 
COc1cc(-c2nnc3n2NC(c2ccco2)C(C(=O)c2ccc(F)c(F)c2)S3)cc(OC)c1OC (centres undefined) | 93.7 | 36 | 52.4 | 73.2 | Ratio IC50 [5]: 0.62
COc1cc(C(=O)C2Sc3nnc(-c4cc(OC)c(OC)c(OC)c4)n3NC2c2cccs2)cc(OC)c1OC (centres undefined) | > 100 | > 100 | > 100 | 71 | 
COc1cc(-c2nnc3n2NC(c2ccco2)C(C(=O)c2ccco2)S3)cc(OC)c1OC (centres undefined) | 68.7 | 58.3 | > 100 | > 100 | 
COc1cc(-c2nnc3n2NC(c2ccco2)C(C(=O)c2cccs2)S3)cc(OC)c1OC (centres undefined) | 78.7 | 46.2 | 64.1 | > 100 | 
COc1cc(-c2nnc3n2NC(c2ccco2)C(C(=O)c2ccc(C)cc2)S3)cc(OC)c1OC (centres undefined) | > 100 | 7.5 | 17.4 | > 100 | Ratio IC50 [6]: 2.7; Ratio IC50 [5]: 3
COc1cc(-c2nnc3n2NC(c2ccco2)C(C(=O)c2ccc(O)cc2)S3)cc(OC)c1OC (centres undefined) | 93.4 | 38.3 | > 100 | 88.9 | 
COc1cc(-c2nnc3n2NC(c2cccs2)C(C(=O)c2ccccc2)S3)cc(OC)c1OC (centres undefined) | 69.4 | 86.3 | > 100 | > 100 | 
COc1cc(-c2nnc3n2NC(c2cccs2)C(C(=O)c2ccc(C)cc2)S3)cc(OC)c1OC (centres undefined) | 12.7 | 5.09 | 3.7 | 28.4 | Activity [7]: Dose-dependent effect; Activity [8]: 65.1%; Activity [9]: 23.69%; Ratio IC50 [10]: 2; Activity [11]: 47.22%; Activity [12]: 33.85%; Activity [13]: 12.53%; Ratio IC50 [6]: 11; Activity [14]: 0.92%; Ratio IC50 [5]: 3; Activity [15]: 15.52%; Activity [16]: 0.38%; Activity [17]: 57%; Activity [18]: 9.79%; Activity [19]: 0.3%; Activity [20]: 29.4%
COc1ccc(C(=O)C2Sc3nnc(-c4cc(OC)c(OC)c(OC)c4)n3NC2c2ccco2)cc1 (centres undefined) | > 100 | > 100 | > 100 | > 100 | 
COc1cc(-c2nnc3n2NC(c2cccs2)C(C(=O)c2ccc(Cl)cc2)S3)cc(OC)c1OC (centres undefined) | 20.1 | 32.5 | 13.2 | 42.8 | 
COc1cc(-c2nnc3n2NC(c2ccco2)C(C(=O)c2ccc(-c4ccccc4)cc2)S3)cc(OC)c1OC (centres undefined) | > 100 | 45.9 | > 100 | > 100 | 
COc1cc(-c2nnc3n2NC(c2ccco2)C(C(=O)c2ccccc2)S3)cc(OC)c1OC (centres undefined) | 33.4 | 64.3 | 90.9 | 39.8 | 
COc1cc(-c2nnc3n2NC(c2ccco2)C(C(=O)c2ccc([N+](=O)[O-])cc2)S3)cc(OC)c1OC (centres undefined) | > 100 | 27.9 | 87.8 | > 100 | Ratio IC50 [5]: 0.62
COc1ccc(C(=O)C2Sc3nnc(-c4cc(OC)c(OC)c(OC)c4)n3NC2c2cccs2)cc1 (centres undefined) | > 100 | 95.9 | 68 | 49.5 | 
